Results taken from patent publication US8440206B2 (priority 2006, dated 2013).

test system: CD8+ T cells; type: cell-based, human

Row | Sequence | #SFU
1 | RADEEQQQAL | 120
2 | QTVEDEARRMW | 84
3 | ELPQWLSANR | <10
